Assay results from ChEMBL document CHEMBL1152560, “Substituted 2-arylbenzothiazoles as kinase inhibitors: hit-to-lead optimization” (Bioorg Med Chem, 2009).

How the values were obtained:
Angiopoietin-1 receptor = Angiopoietin-1 receptor (Homo sapiens, UniProt Q02763); assay: Residual activity of TIE2 at 0.1 uM by microplate scintillation counting
[1] = biological target: Ribosomal protein S6 kinase alpha-3 (Homo sapiens) (UniProt P51812); assay: Residual activity of RPS6KA3 at 1 uM by microplate scintillation counting
[2] = biological target: Mitogen-activated protein kinase 14 (Homo sapiens) (UniProt Q16539); assay: Residual activity of p38alpha at 0.1 uM by microplate scintillation counting
Mitogen-activated protein kinase 14 (Homo sapiens), sequence (Q16539 whole entry): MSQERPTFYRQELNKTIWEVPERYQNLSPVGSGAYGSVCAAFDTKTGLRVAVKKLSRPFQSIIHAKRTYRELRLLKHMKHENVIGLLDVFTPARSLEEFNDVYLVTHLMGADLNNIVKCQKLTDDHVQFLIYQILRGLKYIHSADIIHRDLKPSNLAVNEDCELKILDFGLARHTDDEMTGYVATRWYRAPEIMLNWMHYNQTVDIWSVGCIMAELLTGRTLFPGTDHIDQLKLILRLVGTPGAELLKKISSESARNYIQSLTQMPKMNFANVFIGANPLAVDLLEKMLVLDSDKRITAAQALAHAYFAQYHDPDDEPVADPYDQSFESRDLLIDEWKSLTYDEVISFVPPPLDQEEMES

[3] = biological target: Serine/threonine-protein kinase PAK 6 (Homo sapiens) (UniProt Q9NQU5); assay: Residual activity of PAK6 at 1 uM by microplate scintillation counting
[4] = biological target: T1, Aurora kinase C (Homo sapiens) (UniProt Q9UQB9); assay: Residual activity of Aurora-C at 10 uM by microplate scintillation counting
T1 sequence (whole entry): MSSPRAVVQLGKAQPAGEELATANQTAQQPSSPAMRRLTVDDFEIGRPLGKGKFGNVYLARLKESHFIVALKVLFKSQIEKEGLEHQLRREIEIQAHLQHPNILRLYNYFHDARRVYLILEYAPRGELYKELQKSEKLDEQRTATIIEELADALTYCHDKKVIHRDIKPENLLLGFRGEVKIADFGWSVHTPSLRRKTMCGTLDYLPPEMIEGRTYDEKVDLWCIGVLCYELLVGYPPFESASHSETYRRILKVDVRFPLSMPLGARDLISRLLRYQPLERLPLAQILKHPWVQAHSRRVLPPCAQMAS

[5] = biological target: Insulin receptor-related protein (Homo sapiens) (UniProt P14616); assay: Residual activity of INSRR at 0.1 uM by microplate scintillation counting
Insulin receptor-related protein (Homo sapiens), sequence (P14616 27-742 limits assumed): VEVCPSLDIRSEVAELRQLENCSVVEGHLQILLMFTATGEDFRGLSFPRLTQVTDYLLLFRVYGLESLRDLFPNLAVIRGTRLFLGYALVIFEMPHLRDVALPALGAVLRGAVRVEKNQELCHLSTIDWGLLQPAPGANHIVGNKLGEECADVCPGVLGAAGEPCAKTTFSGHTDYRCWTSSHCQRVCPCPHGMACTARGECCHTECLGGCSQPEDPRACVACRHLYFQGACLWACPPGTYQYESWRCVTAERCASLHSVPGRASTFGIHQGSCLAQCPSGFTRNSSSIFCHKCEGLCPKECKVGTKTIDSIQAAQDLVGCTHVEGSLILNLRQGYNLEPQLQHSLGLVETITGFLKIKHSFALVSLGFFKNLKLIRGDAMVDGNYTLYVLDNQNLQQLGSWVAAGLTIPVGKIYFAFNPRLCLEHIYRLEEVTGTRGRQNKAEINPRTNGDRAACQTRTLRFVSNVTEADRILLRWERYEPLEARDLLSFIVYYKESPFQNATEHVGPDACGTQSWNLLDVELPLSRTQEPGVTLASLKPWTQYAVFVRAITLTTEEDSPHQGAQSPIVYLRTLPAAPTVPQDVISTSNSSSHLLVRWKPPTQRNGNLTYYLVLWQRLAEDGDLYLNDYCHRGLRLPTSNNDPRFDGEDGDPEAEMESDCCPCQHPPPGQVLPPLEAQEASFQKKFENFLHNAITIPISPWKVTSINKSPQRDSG
Insulin receptor-related protein (Homo sapiens), sequence (P14616 747-1297 limits assumed): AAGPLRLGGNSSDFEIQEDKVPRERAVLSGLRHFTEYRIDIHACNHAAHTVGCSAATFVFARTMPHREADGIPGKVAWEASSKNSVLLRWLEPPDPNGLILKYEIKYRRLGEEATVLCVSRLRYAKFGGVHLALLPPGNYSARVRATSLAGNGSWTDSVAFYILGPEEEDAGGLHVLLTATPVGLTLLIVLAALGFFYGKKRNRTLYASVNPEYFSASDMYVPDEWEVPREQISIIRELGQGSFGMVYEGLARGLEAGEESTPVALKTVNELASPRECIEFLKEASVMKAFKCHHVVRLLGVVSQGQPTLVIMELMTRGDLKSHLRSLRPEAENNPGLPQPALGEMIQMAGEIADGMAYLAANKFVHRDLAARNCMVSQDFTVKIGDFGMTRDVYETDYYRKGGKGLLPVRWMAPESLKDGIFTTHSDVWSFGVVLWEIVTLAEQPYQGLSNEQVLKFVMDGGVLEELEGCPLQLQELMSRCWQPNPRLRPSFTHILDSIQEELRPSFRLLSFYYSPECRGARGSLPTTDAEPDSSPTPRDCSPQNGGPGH

[6] = biological target: T2, Ephrin type-A receptor 3 (Homo sapiens) (UniProt P29320); assay: Residual activity of EPHA3 at 1 uM by microplate scintillation counting
T2 sequence (whole entry): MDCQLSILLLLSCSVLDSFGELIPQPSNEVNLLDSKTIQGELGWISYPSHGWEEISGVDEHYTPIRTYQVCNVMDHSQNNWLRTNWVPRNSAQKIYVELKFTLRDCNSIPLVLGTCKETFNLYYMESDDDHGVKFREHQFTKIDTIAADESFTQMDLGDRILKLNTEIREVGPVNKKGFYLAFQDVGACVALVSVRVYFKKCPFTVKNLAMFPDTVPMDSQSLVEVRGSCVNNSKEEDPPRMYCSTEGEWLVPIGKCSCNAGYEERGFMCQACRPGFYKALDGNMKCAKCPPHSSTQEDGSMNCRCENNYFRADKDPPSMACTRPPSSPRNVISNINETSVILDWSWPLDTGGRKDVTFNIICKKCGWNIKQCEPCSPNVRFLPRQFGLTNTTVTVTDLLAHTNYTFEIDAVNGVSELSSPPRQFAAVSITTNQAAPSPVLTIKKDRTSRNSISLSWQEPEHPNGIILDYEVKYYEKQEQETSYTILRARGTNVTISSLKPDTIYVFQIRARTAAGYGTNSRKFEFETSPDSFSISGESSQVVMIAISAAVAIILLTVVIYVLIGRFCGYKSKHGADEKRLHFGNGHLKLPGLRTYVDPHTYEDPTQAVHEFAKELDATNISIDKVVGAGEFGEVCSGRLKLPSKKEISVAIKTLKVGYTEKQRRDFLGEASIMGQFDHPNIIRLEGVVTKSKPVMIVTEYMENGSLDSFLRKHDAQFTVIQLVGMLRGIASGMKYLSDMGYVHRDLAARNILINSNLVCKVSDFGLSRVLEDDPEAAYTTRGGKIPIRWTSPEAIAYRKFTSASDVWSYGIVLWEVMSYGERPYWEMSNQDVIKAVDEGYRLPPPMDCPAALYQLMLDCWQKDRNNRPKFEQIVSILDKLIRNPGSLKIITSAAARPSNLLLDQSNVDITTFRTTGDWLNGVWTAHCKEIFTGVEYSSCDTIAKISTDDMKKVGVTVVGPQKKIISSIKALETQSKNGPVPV

[7] = biological target: Cyclin-dependent kinase 1/cyclin B1 (Homo sapiens) (UniProt P06493+P14635); assay: Residual activity of CDK1/CyclinB1 at 10 uM by microplate scintillation counting; format: protein-complex assay
[8] = biological target: Protein kinase C delta type (Homo sapiens) (UniProt Q05655); assay: Residual activity of PKCdelta at 1 uM by microplate scintillation counting
Protein kinase C delta type (Homo sapiens), sequence (Q05655 whole entry, looked up): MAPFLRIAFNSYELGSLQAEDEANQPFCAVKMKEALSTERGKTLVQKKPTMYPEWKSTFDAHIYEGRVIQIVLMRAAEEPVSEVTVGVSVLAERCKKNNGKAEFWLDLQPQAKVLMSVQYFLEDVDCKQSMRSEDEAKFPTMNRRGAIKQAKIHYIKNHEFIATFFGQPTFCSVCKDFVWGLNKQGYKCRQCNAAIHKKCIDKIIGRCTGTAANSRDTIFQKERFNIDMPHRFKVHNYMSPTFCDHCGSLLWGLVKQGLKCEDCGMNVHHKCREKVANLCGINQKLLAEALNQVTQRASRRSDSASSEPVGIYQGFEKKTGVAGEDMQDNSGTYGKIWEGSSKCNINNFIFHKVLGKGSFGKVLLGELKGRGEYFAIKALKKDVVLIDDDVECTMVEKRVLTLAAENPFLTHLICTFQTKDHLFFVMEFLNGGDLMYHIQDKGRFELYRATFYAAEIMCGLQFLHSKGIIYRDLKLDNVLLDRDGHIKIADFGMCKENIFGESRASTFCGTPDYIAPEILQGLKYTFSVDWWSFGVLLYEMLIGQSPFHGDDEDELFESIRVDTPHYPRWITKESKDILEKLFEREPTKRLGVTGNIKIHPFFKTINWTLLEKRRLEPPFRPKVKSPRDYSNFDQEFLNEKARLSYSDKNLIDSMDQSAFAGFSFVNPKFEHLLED

[9] = biological target: Tyrosine-protein kinase ABL1 (Homo sapiens) (UniProt P00519); assay: Residual activity of wild type ABL1 at 0.1 uM by microplate scintillation counting
[10] = biological target: Homeodomain-interacting protein kinase 1 (Homo sapiens) (UniProt Q86Z02); assay: Residual activity of HIPK1 at 0.1 uM by microplate scintillation counting
Homeodomain-interacting protein kinase 1 (Homo sapiens), sequence (Q86Z02 whole entry, looked up): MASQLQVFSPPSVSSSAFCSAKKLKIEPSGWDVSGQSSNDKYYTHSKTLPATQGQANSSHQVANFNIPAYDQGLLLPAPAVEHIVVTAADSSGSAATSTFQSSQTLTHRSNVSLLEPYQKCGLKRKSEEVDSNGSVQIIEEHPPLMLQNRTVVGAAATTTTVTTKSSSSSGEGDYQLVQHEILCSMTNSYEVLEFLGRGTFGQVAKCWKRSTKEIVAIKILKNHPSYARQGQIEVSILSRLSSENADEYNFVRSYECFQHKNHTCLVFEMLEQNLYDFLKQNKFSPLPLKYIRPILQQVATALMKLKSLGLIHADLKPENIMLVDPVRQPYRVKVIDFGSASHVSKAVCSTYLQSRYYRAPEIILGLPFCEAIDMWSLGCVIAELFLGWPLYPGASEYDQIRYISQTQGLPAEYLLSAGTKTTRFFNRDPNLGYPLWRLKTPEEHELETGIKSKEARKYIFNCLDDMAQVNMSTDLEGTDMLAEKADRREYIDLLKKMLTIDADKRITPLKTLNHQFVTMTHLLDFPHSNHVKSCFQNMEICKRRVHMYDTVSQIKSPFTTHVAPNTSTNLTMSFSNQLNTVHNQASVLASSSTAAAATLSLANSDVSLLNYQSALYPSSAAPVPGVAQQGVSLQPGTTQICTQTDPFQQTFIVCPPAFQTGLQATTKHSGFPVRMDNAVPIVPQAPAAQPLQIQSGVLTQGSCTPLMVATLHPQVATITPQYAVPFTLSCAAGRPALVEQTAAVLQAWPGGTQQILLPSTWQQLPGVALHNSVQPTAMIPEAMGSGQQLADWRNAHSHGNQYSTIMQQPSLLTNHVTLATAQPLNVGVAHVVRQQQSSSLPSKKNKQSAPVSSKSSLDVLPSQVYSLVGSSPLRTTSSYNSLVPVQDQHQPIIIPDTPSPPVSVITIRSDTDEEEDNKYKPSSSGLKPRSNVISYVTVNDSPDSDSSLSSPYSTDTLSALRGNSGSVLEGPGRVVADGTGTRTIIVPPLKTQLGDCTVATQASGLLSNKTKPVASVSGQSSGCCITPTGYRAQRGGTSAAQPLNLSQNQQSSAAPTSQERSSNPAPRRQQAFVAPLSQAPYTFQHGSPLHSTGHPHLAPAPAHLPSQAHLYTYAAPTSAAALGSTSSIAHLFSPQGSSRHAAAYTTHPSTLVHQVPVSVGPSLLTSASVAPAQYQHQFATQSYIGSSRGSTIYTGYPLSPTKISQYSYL

[11] = biological target: Activin receptor type-1-like (Homo sapiens) (UniProt P37023); assay: Residual activity of ACV-RL1 at 10 uM by microplate scintillation counting
[12] = biological target: Insulin receptor-related protein (Homo sapiens) (UniProt P14616); assay: Residual activity of INSRR at 10 uM by microplate scintillation counting
[13] = tested on: T3, Dual specificity mitogen-activated protein kinase kinase 6 (Homo sapiens), P52564 [S207D,T211D]; assay: Residual activity of MKK6 S207D/T211D mutant at 10 uM by microplate scintillation counting
T3 sequence (whole entry): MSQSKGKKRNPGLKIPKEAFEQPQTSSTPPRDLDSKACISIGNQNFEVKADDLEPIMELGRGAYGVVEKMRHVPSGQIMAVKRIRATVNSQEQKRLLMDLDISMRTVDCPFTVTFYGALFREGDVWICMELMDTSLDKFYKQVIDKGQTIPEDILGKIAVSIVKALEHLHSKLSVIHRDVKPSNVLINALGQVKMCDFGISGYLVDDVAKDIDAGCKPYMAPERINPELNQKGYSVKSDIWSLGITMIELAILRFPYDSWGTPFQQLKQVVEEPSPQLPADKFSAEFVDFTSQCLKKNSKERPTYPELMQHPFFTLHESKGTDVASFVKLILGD

[14] = biological target: T4, cAMP-dependent protein kinase catalytic subunit PRKX (Homo sapiens) (UniProt P51817); assay: Residual activity of PRKX at 10 uM by microplate scintillation counting
T4 sequence (whole entry): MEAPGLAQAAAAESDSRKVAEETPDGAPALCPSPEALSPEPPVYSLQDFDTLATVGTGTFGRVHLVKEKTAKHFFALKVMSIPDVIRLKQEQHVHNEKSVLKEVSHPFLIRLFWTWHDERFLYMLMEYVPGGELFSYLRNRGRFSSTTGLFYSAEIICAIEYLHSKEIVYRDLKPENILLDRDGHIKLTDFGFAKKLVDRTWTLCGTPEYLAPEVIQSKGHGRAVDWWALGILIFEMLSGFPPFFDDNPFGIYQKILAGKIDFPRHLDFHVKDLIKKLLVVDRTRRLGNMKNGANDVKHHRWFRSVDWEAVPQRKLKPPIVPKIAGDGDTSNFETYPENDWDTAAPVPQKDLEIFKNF

[15] = biological target: Mitogen-activated protein kinase kinase kinase kinase 4 (Homo sapiens) (UniProt O95819); assay: Residual activity of MAP4K4 at 0.1 uM by microplate scintillation counting
Mitogen-activated protein kinase kinase kinase kinase 4 (Homo sapiens), sequence (O95819 2-1239 limits assumed): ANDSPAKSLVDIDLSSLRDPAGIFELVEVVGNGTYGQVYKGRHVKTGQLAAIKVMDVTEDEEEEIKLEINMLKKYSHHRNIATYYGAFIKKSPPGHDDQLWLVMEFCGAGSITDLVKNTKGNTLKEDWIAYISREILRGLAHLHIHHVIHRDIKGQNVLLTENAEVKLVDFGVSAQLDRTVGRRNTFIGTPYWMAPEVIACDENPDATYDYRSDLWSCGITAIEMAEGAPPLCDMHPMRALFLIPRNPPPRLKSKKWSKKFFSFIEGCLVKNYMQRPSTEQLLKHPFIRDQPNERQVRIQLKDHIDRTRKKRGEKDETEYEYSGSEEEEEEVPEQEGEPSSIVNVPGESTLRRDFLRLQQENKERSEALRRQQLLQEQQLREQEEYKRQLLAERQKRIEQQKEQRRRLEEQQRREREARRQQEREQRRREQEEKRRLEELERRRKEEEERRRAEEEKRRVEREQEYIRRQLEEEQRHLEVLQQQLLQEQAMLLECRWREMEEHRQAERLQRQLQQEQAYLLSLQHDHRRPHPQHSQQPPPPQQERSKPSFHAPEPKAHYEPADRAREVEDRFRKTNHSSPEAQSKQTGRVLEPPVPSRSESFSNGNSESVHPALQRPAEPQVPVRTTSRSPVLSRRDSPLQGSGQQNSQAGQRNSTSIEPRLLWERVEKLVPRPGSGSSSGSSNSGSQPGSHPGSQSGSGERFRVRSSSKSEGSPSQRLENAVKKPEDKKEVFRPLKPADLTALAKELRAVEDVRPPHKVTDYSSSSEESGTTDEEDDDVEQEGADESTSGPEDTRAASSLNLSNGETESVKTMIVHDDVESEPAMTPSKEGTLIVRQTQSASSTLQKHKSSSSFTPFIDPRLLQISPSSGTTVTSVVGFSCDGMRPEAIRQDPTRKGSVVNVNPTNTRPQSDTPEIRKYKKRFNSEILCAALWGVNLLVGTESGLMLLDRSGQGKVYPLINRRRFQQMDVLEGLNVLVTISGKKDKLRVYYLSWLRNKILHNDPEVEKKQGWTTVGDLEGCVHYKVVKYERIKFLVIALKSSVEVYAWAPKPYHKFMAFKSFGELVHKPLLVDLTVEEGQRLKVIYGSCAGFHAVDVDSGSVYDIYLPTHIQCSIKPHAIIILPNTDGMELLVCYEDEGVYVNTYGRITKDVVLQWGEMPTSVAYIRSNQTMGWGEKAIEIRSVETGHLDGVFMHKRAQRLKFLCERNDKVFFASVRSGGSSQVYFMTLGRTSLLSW

SMILES	residual activity (Angiopoietin-1 receptor) [%]	residual activity [1] [%]	residual activity [2] [%]	residual activity [3] [%]	residual activity [4] [%]	residual activity [5] [%]	residual activity [6] [%]	residual activity [7] [%]	residual activity [8] [%]	residual activity [9] [%]	residual activity [10] [%]	residual activity [11] [%]	residual activity [12] [%]	residual activity [13] [%]	residual activity [14] [%]	residual activity [15] [%]
COc1cc2c(Oc3ccc(-c4nc5ccccc5s4)cc3F)ncnc2cc1OCCCN1CCN(C)CC1	53	95	101	90	2	116	96	100	94	100	85	91	7	164	94	83
COc1cc2c(Oc3ccc(-c4nc5ccccc5s4)cc3)ncnc2cc1OCCCN1CCCC1	50	93	100	109	1	97	90	96	93	97	83	87	43	148	86	86
COc1cc2c(Oc3ccc(-c4nc5ccccc5s4)cc3)ncnc2cc1OCCCN1CCN(C)CC1	38	85	93	74	0	96	96	111	103	94	99	84	51	185	86	85
